Measured values reported in publication PMC10692163, “Structure-based discovery of novel P-glycoprotein inhibitors targeting the nucleotide binding domains” (Scientific Reports, 2023).
pIC50, pKd: −log10 of the molar value. Like-named read-outs stand apart in the source and are kept apart here.

Assays:
[1] = test system: P-gp nucleotide binding domain; conditions: Table S1, supplement reference list, cited from earlier work
P-gp [2] = target: T1, P-gp (Homo sapiens, UniProt P08183); assay: Calcein-AM efflux assay in MDCKII MDR1 cells; type: cell-based; parameters: host or cells: MDCKII MDR1 cells; conditions: for pIC50: MDCKII MDR1 cells
Description: Calcein-AM efflux experiments were performed on MDCKII MDR1 cells, which were seeded on black 96-well microplates. Before the experiments, media was removed from the wells and 50 µL pre-warmed HBSS ^7.4+ was added. After a 15 min incubation period, the HBSS ^7.4+ buffer was removed and 50 µL of solution containing P-gp inhibitor or test compound dissolved in HBSS ^7.4+ or HBSS ^5.5+ were added to the individual wells, followed by addition of 50 µL 10.0 µM calcein-AM giving a final calcein-AM concentration of 5.0 µM. Calcein-AM diffuses into the cell where it is either hydrolysed to a membrane-impermeable fluorescent calcein dye or extruded from the cell by P-gp[63]. Inhibiting P-gp increases the amount of calcein in the cell and a higher amount is hydrolysed to calcein, thus the fluorescence measured is increased. The highest concentration of each compound was added to a cell-containing well in the absence of calcein-AM to investigate if compounds were fluorescent themselves.
(§1) Calcein fluorescence in arbitrary unit (a.u) corrected for background signal, which was the signal obtained from the cells incubated with HBSS ^7.4+ or HBSS ^5.5+ without calcein-AM, was plotted as a function of time and slopes (denoted m below) were obtained by linear regression. The increase in fluorescent calcein is a surrogate marker of increased P-gp inhibition. The slope from curves of fluorescence as a function of time for a compound ( mcompound ) was normalized to the slope of fluorescence in cells exposed to HBSS ^7.4+ or HBSS ^5.5+ only (referred as control, mcontrol ).

P-gp [3] = target: T1, P-gp; assay: Inhibition of verapamil-stimulated sensitive ATPase activity (ATP consumption) in P-gp expressing Sf9 vesicles; type: biochemical; parameters: purchased GenoMembrane Co., Ltd (Kanagawa, Japan); host or cells: Sf9 insect cells infected with baculovirus; purified plasma membrane vesicles; conditions: for pIC50: Sf9 vesicles expressing human P-gp, 5 mM MgATP, 60 min, 37 °C, read-out: ATP assay IC50
Description: P-gp-mediated drug transport across membranes is driven by energy derived from hydrolysis of ATP. It is, therefore, possible to evaluate drug binding to P-gp by determining the ATPase activity. The method was modified from the procedure reported by Sarkadi et al.[64]. Briefly, solutions of test compounds and positive and negative controls in a reaction medium containing 50 mM MOPS-Tris (pH 7.4), 0.1 mM EGTA, 2 mM DDT, 50 mM KCl, 5 mM sodium azide, and 1 mM ouabain were incubated on ice in a 96 well plate. Then P-gp containing membrane vesicles to a final concentration of 0.5 mg/ml were added on ice to each well. […] Then, the ATPase reaction was started by the addition of MgATP to a final concentration of 5 mM and the plates with vesicles were incubated at 37 ^∘ C for 60 min. The reaction was stopped by the addition of a 10% SDS solution and the amount of inorganic phosphate was determined immediately by addition of a coloring solution containing final concentrations of 8 mM ascorbic acid, 10 mM zinc acetate, and 7 mM ammonium molybdate. The wells were then incubated at 37 ^∘ C for 20 min and the absorbance was scanned at wave lengths from 630 to 850 nm, and 740 nm was used for calculation of ATP consumption based on a phosphate standard curve freshly made with each experiment. To estimate sensitive ATPase activity mediated by P-gp, all experiments were conducted with no compound controls (2% DMSO), positive controls and background controls in which no stop solution was added, all in the absence and presence of 500 µM vanadate. The absorbance measured for a test condition was converted to nmol inorganic phosphate and normalized for reaction time and protein amount. The sensitive ATPase activity was then obtained by subtracting the inorganic phosphate generated in the presence of 500 µM vanadate at otherwise similar conditions.
as §1

P-gp [4] = target: T1, P-gp; parameters: method as in PMID 1356264, PMID 7911680, PMID 7772017, PMID 11121420; conditions: read-out: Binding affinity for ATP to P-gp; cited from earlier work

T1 sequence (P08183 whole entry): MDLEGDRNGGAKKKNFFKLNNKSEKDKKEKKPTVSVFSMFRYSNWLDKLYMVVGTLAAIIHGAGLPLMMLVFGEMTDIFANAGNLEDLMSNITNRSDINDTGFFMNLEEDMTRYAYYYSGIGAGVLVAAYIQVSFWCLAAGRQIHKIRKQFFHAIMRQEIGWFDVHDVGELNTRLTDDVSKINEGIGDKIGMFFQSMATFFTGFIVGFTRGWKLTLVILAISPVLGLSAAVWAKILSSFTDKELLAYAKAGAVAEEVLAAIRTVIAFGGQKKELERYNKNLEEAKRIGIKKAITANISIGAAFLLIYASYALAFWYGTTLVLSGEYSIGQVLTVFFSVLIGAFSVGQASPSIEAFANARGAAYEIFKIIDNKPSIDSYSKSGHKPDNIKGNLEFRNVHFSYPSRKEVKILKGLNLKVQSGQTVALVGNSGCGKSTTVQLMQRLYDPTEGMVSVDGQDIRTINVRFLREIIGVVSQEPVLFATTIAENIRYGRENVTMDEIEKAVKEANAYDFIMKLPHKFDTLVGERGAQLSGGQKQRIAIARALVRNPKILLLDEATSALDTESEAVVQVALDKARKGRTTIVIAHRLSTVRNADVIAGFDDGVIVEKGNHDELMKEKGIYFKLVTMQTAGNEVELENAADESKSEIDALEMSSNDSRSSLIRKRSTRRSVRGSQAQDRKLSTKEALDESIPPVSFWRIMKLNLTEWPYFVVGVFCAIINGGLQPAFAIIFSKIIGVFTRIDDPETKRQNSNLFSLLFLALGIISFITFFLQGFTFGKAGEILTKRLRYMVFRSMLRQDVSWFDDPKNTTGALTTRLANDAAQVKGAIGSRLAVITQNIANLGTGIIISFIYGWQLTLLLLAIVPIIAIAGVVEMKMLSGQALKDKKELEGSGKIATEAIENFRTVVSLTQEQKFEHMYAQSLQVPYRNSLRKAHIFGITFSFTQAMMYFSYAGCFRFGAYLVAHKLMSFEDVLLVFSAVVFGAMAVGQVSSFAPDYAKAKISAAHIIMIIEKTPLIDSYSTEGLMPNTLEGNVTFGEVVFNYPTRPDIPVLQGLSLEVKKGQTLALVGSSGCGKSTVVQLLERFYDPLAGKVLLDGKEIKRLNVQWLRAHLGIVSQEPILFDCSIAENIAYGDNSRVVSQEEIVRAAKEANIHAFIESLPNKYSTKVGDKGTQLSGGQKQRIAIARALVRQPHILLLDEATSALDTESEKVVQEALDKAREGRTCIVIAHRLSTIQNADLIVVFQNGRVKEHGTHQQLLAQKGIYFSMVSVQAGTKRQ

Question: With `O=c1c(O)c(-c2ccccc2)oc2ccccc12` [3OH-flavone] as the molecule, how does the “Class (known P-gp NBD inhibitor)” value ([1]; ref [4]) read?
Answer: Marginal

Question: With `COc1cc(C2Oc3cc([C@H]4Oc5cc(O)cc(O)c5C(=O)[C@@H]4O)ccc3OC2CO)ccc1O` (some centres unmarked) [Silybin] as the molecule, how does the “Class (known P-gp NBD inhibitor)” value ([1]; ref [4]) read?
Answer: Marginal

Question: With `Cn1cnnc1CC(NS(=O)(=O)N1CCC(C(C)(C)C)CC1)C(=O)O` (centres unmarked) [compound 10] as the molecule, how does the pIC50 (P-gp [2]; extracellular pH 5.5, 5.0 µM calcein-AM, read-out: Calcein-AM, pH 5.5 IC50) read?
Answer: 3.90

Question: What about the pIC50 (P-gp [2]; extracellular pH 7.4, 5.0 µM calcein-AM, read-out: Calcein-AM, pH 7.4 IC50) of the same molecule?
Answer: 3.52

Question: And the “Ability to inhibit calcein-AM efflux” value (P-gp [2]; at both pH 5.5 and pH 7.4)?
Answer: ability to inhibit calcein-AM efflux at both pH 5.5 and pH 7.4

Question: And the “Calcein-AM, pH 5.5 LogIC50” value (P-gp [2]; log of IC50 in µM, extracellular pH 5.5)?
Answer: 2.10

Question: And the IC50 (P-gp [2]; log of IC50 in µM, extracellular pH 7.4, read-out: Calcein-AM, pH 7.4 Log IC50 (converted))?
Answer: 302 µM

Question: What about the pIC50 (P-gp [3]; 50 µM verapamil) of the same molecule?
Answer: 3.48

Question: And the IC50 (P-gp [3]; log of IC50 in µM, Sf9 vesicles, 50 µM verapamil, read-out: ATP assay Log IC50 (converted))?
Answer: 331 µM

Question: For `COc1ccc(-c2oc3cc(O)cc(O)c3c(=O)c2O)cc1` [kaempferide], which “Class (known P-gp NBD inhibitor)” value ([1]; ref [4]) is on record?
Answer: Marginal

Question: For `C=C(CO)[C@H]1Cc2c(ccc3c2O[C@@H]2COc4cc(OC)c(OC)cc4[C@@H]2C3=O)O1` [Amorphigenin], which “Class (known P-gp NBD inhibitor)” value ([1]; ref [1]) is on record?
Answer: Marginal

Question: What does the source list for `COc1cc2c(cc1OC)CN(CCc1ccc(NC(=O)c3cc(OC)c(OC)cc3NC(=O)c3cnc4ccccc4c3)cc1)CC2` [Tariquidar]?
Answer: Effect on verapamil-stimulated sensitive P-gp ATPase activity (P-gp [3]; 1 µM Tariquidar plus 50 µM verapamil): reduced to the background buffer level; pIC50 (P-gp [3]; 50 µM verapamil): 6.96

Question: With `Oc1cc(O)c2c(c1)O[C@H](c1ccc(O)c(O)c1)[C@H](O)C2` [Epicatechin] as the molecule, how does the “Class (known P-gp NBD inhibitor)” value ([1]; ref [5]) read?
Answer: Marginal

Question: Which “Class (known P-gp NBD inhibitor)” value ([1]; ref [1]) does the source give for `C=C(CO)C1Cc2c(ccc3c(=O)c4c(oc23)COc2cc(OC)c(OC)cc2-4)O1` (centres unmarked) [6a,12a,-Dehydroamorphigenin] here?
Answer: Marginal

Question: For `O=c1cc(-c2ccc(O)cc2)oc2cc(O)cc(O)c12` [Apigenin], which “Class (known P-gp NBD inhibitor)” value ([1]; ref [4]) is on record?
Answer: Marginal

Question: Which “Class (known P-gp NBD inhibitor)” value ([1]; ref [4]) does the source give for `O=c1c(O)c(-c2ccccc2)oc2cc(O)cc(O)c12` [Galangin] here?
Answer: Marginal

Question: With `O=c1cc(-c2ccccc2)oc2cc(O)cc(O)c12` [Chrysin] as the molecule, how does the “Class (known P-gp NBD inhibitor)” value ([1]; ref [1]) read?
Answer: Marginal

Question: Which “Class (known P-gp NBD inhibitor)” value ([1]; ref [6]) does the source give for Mitragynine here?
Answer: Marginal

Question: With `Oc1cc(O)c2c(c1)O[C@H](c1cc(O)c(O)c(O)c1)[C@H](O)C2` [Epigallocatechin] as the molecule, how does the “Class (known P-gp NBD inhibitor)” value ([1]; ref [1]) read?
Answer: Marginal

Question: For `C=C(CO)[C@H]1Cc2c(ccc3c2O[C@@H]2COc4cc(OC)c(OC)cc4[C@]2(O)C3=O)O1` [12a-Hydroxyamorphigenin], which “Class (known P-gp NBD inhibitor)” value ([1]; ref [1]) is on record?
Answer: Marginal

Question: For `O=C(O[C@@H]1Cc2c(O)cc(O)cc2O[C@@H]1c1cc(O)c(O)c(O)c1)c1cc(O)c(O)c(O)c1` [Epigallocatechingallate (EGCG), Epigallocatechingallate], which “Class (known P-gp NBD inhibitor)” value ([1]; ref [3]) is on record?
Answer: Active

Question: Which “Class (known P-gp NBD inhibitor)” value ([1]; ref [4]) does the source give for `O=c1c(O)c(-c2ccc(O)cc2)oc2cc(O)cc(O)c12` [kaempferol] here?
Answer: Marginal

Question: For `COc1ccc(-c2coc3cc(O)cc(O)c3c2=O)cc1` [Biochanin A], which “Class (known P-gp NBD inhibitor)” value ([1]; ref [2]) is on record?
Answer: Active

Question: With `Nc1ncnc2c1ncn2[C@@H]1O[C@H](COP(=O)(O)OP(=O)(O)OP(=O)(O)O)[C@@H](O)[C@H]1O` [ATP] as the molecule, how does the pKd (P-gp [4]) read?
Answer: 3.10 to 3.52

Question: With `C=C(C)[C@H]1Cc2c(ccc3c2O[C@@H]2COc4cc(OC)c(OC)cc4[C@@H]2C3=O)O1` [Rotenone] as the molecule, how does the “Class (known P-gp NBD inhibitor)” value ([1]; ref [1]) read?
Answer: Active
